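Compound exposure: 48 hours, 5 concentrations, 96-well plates. GI50 = concentration required for 50% inhibition of growth. TGI: concentration producing complete growth inhibition.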
How the values were obtained:
Assay in all cases: DTP human tumour cell line panel, 48 h
786-0 renal = test system: 786-0 renal
A498 renal = test system: A498 renal
A549 NSCLC = test system: A549 NSCLC
ACHN renal = test system: ACHN renal
BT-549 breast = test system: BT-549 breast
CAKI-1 renal = test system: CAKI-1 renal
CCRF-CEM leukemia = test system: CCRF-CEM leukemia
COLO 205 colon = test system: COLO 205 colon
DU-145 prostate = test system: DU-145 prostate
EKVX NSCLC = test system: EKVX NSCLC
HCC-2998 colon = test system: HCC-2998 colon
HCT-116 colon = test system: HCT-116 colon
HCT-15 colon = test system: HCT-15 colon
HL-60(TB) leukemia = test system: HL-60(TB) leukemia
HOP-62 NSCLC = test system: HOP-62 NSCLC
HOP-92 NSCLC = test system: HOP-92 NSCLC
HS 578T breast = test system: HS 578T breast
HT29 colon = test system: HT29 colon
K-562 leukemia = test system: K-562 leukemia
KM12 colon = test system: KM12 colon
LOX IMVI melanoma = test system: LOX IMVI melanoma
M14 melanoma = test system: M14 melanoma
MALME-3M melanoma = test system: MALME-3M melanoma
MCF7 breast = test system: MCF7 breast
MDA-MB-231 breast = test system: MDA-MB-231 breast
MDA-MB-435 = test system: MDA-MB-435
MOLT-4 leukemia = test system: MOLT-4 leukemia
NCI-H226 lung = test system: NCI-H226 lung
NCI-H460 lung = test system: NCI-H460 lung
NCI-H522 lung = test system: NCI-H522 lung
NCI/ADR-RES ovarian = test system: NCI/ADR-RES ovarian
OVCAR-3 ovarian = test system: OVCAR-3 ovarian
OVCAR-4 ovarian = test system: OVCAR-4 ovarian
OVCAR-5 ovarian = test system: OVCAR-5 ovarian
OVCAR-8 ovarian = test system: OVCAR-8 ovarian
PC-3 prostate = test system: PC-3 prostate
RPMI-8226 leukemia = test system: RPMI-8226 leukemia
RXF 393 renal = test system: RXF 393 renal
SF-268 CNS = test system: SF-268 CNS
SF-295 CNS = test system: SF-295 CNS
SF-539 CNS = test system: SF-539 CNS
SK-MEL-2 melanoma = test system: SK-MEL-2 melanoma
SK-MEL-28 melanoma = test system: SK-MEL-28 melanoma
SK-MEL-5 melanoma = test system: SK-MEL-5 melanoma
SK-OV-3 ovarian = test system: SK-OV-3 ovarian
SN12C renal = test system: SN12C renal
SNB-19 CNS = test system: SNB-19 CNS
SNB-75 CNS = test system: SNB-75 CNS
SR leukemia = test system: SR leukemia
SW-620 colon = test system: SW-620 colon
T-47D breast = test system: T-47D breast
TK-10 renal = test system: TK-10 renal
U251 CNS = test system: U251 CNS
UACC-257 melanoma = test system: UACC-257 melanoma
UACC-62 melanoma = test system: UACC-62 melanoma
UO-31 renal = test system: UO-31 renal

## Cn1cc(-c2cc(N)n3nc(-c4cn(C)c5ccc(F)cc45)cc3n2)c2cc(F)ccc21
786-0 renal
  GI50: 1.5 µM
  TGI: 3 µM
A498 renal
  GI50: 1.94 µM
  TGI: 6.18 µM
A549 NSCLC
  GI50: 1.56 µM
  TGI: 3.01 µM
ACHN renal
  GI50: 1.74 µM
  TGI: 3.13 µM
BT-549 breast
  GI50: 1.76 µM
  TGI: 3.51 µM
CAKI-1 renal
  GI50: 2.04 µM
  TGI: 4.42 µM
CCRF-CEM leukemia
  GI50: 2.75 µM
  TGI: 7.92 µM
COLO 205 colon
  GI50: 1.75 µM
  TGI: 3.18 µM
DU-145 prostate
  GI50: 1.8 µM
  TGI: 3.38 µM
EKVX NSCLC
  GI50: 1.73 µM
  TGI: 3.5 µM
HCC-2998 colon
  GI50: 1.74 µM
  TGI: 3.24 µM
HCT-116 colon
  GI50: 1.85 µM
  TGI: 3.57 µM
HCT-15 colon
  GI50: 1.85 µM
  TGI: 3.94 µM
HL-60(TB) leukemia
  GI50: 1.83 µM
  TGI: 5.04 µM
HOP-62 NSCLC
  GI50: 1.99 µM
  TGI: 4.31 µM
HOP-92 NSCLC
  GI50: 1.9 µM
  TGI: 3.5 µM
HS 578T breast
  GI50: 2.45 µM
  TGI: 5.9 µM
HT29 colon
  GI50: 1.64 µM
  TGI: 3.2 µM
K-562 leukemia
  GI50: 2.79 µM
  TGI: 10 µM
KM12 colon
  GI50: 1.84 µM
  TGI: 3.56 µM
LOX IMVI melanoma
  GI50: 2.57 µM
  TGI: 4.22 µM
M14 melanoma
  GI50: 1.68 µM
  TGI: 3.35 µM
MALME-3M melanoma
  GI50: 1.84 µM
  TGI: 3.57 µM
MCF7 breast
  GI50: 1.67 µM
  TGI: 3.19 µM
MDA-MB-231 breast
  GI50: 2 µM
  TGI: 3.79 µM
MDA-MB-435
  GI50: 1.73 µM
  TGI: 3.38 µM
MOLT-4 leukemia
  GI50: 2.31 µM
  TGI: 7.01 µM
NCI-H226 lung
  GI50: 6.5 µM
  TGI: 27.8 µM
NCI-H460 lung
  GI50: 1.9 µM
  TGI: 3.75 µM
NCI-H522 lung
  GI50: 1.62 µM
  TGI: 3.28 µM
NCI/ADR-RES ovarian
  GI50: 2.06 µM
  TGI: 4.6 µM
OVCAR-3 ovarian
  GI50: 1.74 µM
  TGI: 3.16 µM
OVCAR-4 ovarian
  GI50: 1.9 µM
  TGI: 3.9 µM
OVCAR-5 ovarian
  GI50: 1.93 µM
  TGI: 4.1 µM
OVCAR-8 ovarian
  GI50: 1.82 µM
  TGI: 3.53 µM
PC-3 prostate
  GI50: 1.89 µM
  TGI: 3.84 µM
RPMI-8226 leukemia
  GI50: 2.64 µM
  TGI: 8.01 µM
RXF 393 renal
  GI50: 1.83 µM
  TGI: 3.53 µM
SF-268 CNS
  GI50: 1.89 µM
  TGI: 3.95 µM
SF-295 CNS
  GI50: 1.94 µM
  TGI: 3.73 µM
SF-539 CNS
  GI50: 1.9 µM
  TGI: 3.45 µM
SK-MEL-2 melanoma
  GI50: 2.11 µM
  TGI: 5.97 µM
SK-MEL-28 melanoma
  GI50: 1.79 µM
  TGI: 3.23 µM
SK-MEL-5 melanoma
  GI50: 1.71 µM
  TGI: 3.17 µM
SK-OV-3 ovarian
  GI50: 20.9 µM
  TGI: 40.5 µM
SN12C renal
  GI50: 1.9 µM
  TGI: 3.66 µM
SNB-19 CNS
  GI50: 2.01 µM
  TGI: 4.11 µM
SNB-75 CNS
  GI50: 2.29 µM
  TGI: 12.4 µM
SR leukemia
  GI50: 1.97 µM
  TGI: 8.4 µM
SW-620 colon
  GI50: 1.78 µM
  TGI: 3.41 µM
T-47D breast
  GI50: 1.75 µM
  TGI: 3.69 µM
TK-10 renal
  GI50: 1.62 µM
  TGI: 5.91 µM
U251 CNS
  GI50: 1.68 µM
  TGI: 3.17 µM
UACC-257 melanoma
  GI50: 1.78 µM
  TGI: 3.58 µM
UACC-62 melanoma
  GI50: 1.71 µM
  TGI: 3.28 µM
UO-31 renal
  GI50: 1.52 µM
  TGI: 2.95 µM

Source: PubChem BioAssay (NCI)
